Assay results from US10945992B1, “Dosage forms of rofecoxib and related methods” (Tremeau Pharmaceuticals, Inc., priority 2019, dated 2021).
Read-outs that look alike come from different tables or passages of the source.

Legend:
Solubility of rofecoxib = assay type: physicochemical
Procedure: In some embodiments, rofecoxib is a white to off-white to light yellow powder. […] The 50 mg tablets may also contain red ferric oxide. […] Added as preservatives are sodium methylparaben about 0.13% and sodium propylparaben about 0.02%.
https://www.ccdc.cam.ac.uk/structures/Search?Compound=Rofecoxib&DatabaseToSearch=Published). […] Rofecoxib has no ionizable moieties and cannot form salts; the solubility of rofecoxib cannot be increased by changing pH. Therefore, in some embodiments, rofecoxib is micronized in the final step of the manufacturing process in order to increase dissolution rate. Description of Manufacturing Process and Process Controls for Rofecoxib Tablets

[1] = TRM-201-PK-101 single-dose pharmacokinetic study, 25 mg, fasted healthy subjects; assay type: in vivo, human; conditions: for Cmax / AUC(0-inf) / AUC: human, plasma, oral
Procedure: A Single-Dose, Open-Label, Phase 1, Adaptive Pharmacokinetic Study of TRM-201 (Rofecoxib) 25 mg Administered to Healthy Subjects in a Fasting State, with Comparison to Historical Pharmacokinetic Parameters of Previously Marketed Rofecoxib and a Food-Effect Substudy (“TRM-201-PK-101” or “101 PK Study”)
This is a single-center, open-label, adaptive PK study of TRM-201 consisting of a MAIN study with a PILOT portion conducted under a fasted condition, and a two-period crossover, FOOD-EFFECT sub study under both fasted and fed conditions. The PILOT portion of the study (21 subjects) will include a single dose of TRM-201 in a single group to assess the PK of TRM-201 in healthy volunteers under fasted conditions. Following completion of the PILOT portion and the decision to move forward, an additional 16 subjects will be enrolled in the MAIN study and an additional 16 subjects will be enrolled in the FOOD-EFFECT sub study. The MAIN study will include a single dose of TRM-201 to assess the PK of TRM-201 in healthy volunteers under fasted conditions. The FOOD-EFFECT sub study is a single-dose, two-period crossover study. A single dose of TRM-201 will be given on Day 1 of each dosing period to assess the PK of TRM-201 in healthy volunteers under both fasted and fed conditions. Subjects will be randomized 1:1 into the two sequences fasted followed by fed, and fed followed by fasted.
After Check-In, subjects will fast overnight for at least 10 hours before study drug administration. While fasting, subjects will have nothing to eat and only water to drink. Water will be permitted as desired, except for the period between 1 hour before and 1 hour after study drug dosing (excepting as permitted for dosing). After the 2-hour PK blood sample, subjects will be allowed one 250-mL cup of clear apple juice. After the 4-hour PK blood sample, subjects will be served a light lunch. Following the light lunch, subjects should receive standardized meals according to the clinic's standard procedures that are scheduled at consistent times and at least 15 minutes before or 15 minutes after PK sampling time points. Blood will be withdrawn for PK analysis at predefined time points as defined in Table 8. The last time point will be 120 hours after dosing with study drug. After the 120-hour PK sample, the EOS procedures will be completed, and subjects will be discharged from the clinic.
This is an open-label PK study. Each subject is scheduled to receive a single 25-mg dose of TRM-201 in the PILOT portion and the MAIN study, and a single 25-mg dose of TRM-201 twice in the FOOD-EFFECT sub study. TRM-201 manufactured and formulated as Batch 5 (B18090) and Batch 6 (B18091), above, will be used in the study.
The time points and windows for PK blood sampling for the PILOT portion, Main study and FOOD-EFFECT substudy are presented in Table 14 below. For each sample, approximately 3 mL of blood will be drawn. The samples may be obtained by a straight stick or via an in-dwelling intravenous (IV) catheter in a forearm vein. Additional details for the collection, processing, storage, and shipping of PK samples will be provided in the study manual.
Pharmacokinetic samples will be analyzed using a validated assay for rofecoxib in human plasma. Assay results and validation details will be provided in a separate bioanalytical report.
The following PK parameters for rofecoxib will be calculated as primary endpoints using standard noncompartmental methods for both the PILOT portion and MAIN study, and the FOOD-EFFECT sub study: AUC0-∞ and Cmax. Secondary endpoints include Tmax, and t1/2. Additional PK parameters (e.g., CL/F, and Vd/F) will also be calculated using standard noncompartmental methods.
The PK parameters of rofecoxib will be analyzed based on the actual sampling times. All parameters will be calculated using the Phoenix® WinNonlin® version 6.4 or higher (Certara USA Inc., Princeton, N.J.) or SAS® version 9.3 or higher (SAS Institute Inc., Cary, N.C.). […]

[2] = 25 mg, versus Schwartz data, FIG. 28

## CS(=O)(=O)c1ccc(C2=C(c3ccccc3)C(=O)OC2)cc1 [TRM-201, 4-[4-(methylsulfonyl)phenyl]-3-phenyl-2(5H)-furanone]
Solubility of rofecoxib; acetone
  solubility: sparingly soluble
Solubility of rofecoxib; ethanol
  solubility: very slightly soluble
Solubility of rofecoxib; isopropyl acetate
  solubility: slightly soluble
Solubility of rofecoxib; methanol
  solubility: slightly soluble
Solubility of rofecoxib; octanol
  solubility: practically insoluble
Solubility of rofecoxib; water, listed as Rofecoxib
  solubility: practically insoluble
Solubility of rofecoxib; water, listed as rofecoxib
  solubility: insoluble
Solubility of rofecoxib; water, read-out: solubility in water
  solubility: < 100 µg/mL
[1]; [2]
  AUC0-∞ compared to historical data: larger
  Cmax compared to historical data: higher
[1]; 17.5 mg, 17.5 mg formulation, estimated from 101 data, read-out: estimated Cmax
  Cmax: ~238 ng/mL
[1]; 17.5 mg, extrapolated from 25 mg assuming dose linearity, read-out: extrapolated AUC0-∞
  AUC(0-inf): 3250 ng·h/mL
[1]; 17.5 mg, extrapolated from 25 mg assuming dose linearity, read-out: extrapolated Cmax
  Cmax: 223 ng/mL
[1]; 20 mg, 20 mg formulation, estimated from 101 data, read-out: estimated Cmax
  Cmax: ~266 ng/mL
[1]; 20 mg, extrapolated from 25 mg assuming dose linearity, read-out: extrapolated AUC0-∞
  AUC(0-inf): 3710 ng·h/mL
[1]; 20 mg, extrapolated from 25 mg assuming dose linearity, read-out: extrapolated Cmax
  Cmax: 254 ng/mL
[1]; 25 mg, 25 mg formulation in TRM-201-PK-101, as stated in Example 6, read-out: Geometric mean Cmax
  Cmax: 320 ng/mL
[1]; 25 mg, fasted, FIG. 25, read-out: geometric mean AUC0-∞
  AUC(0-inf): 4640 ng·h/mL
[1]; 25 mg, fasted, FIG. 25, read-out: geometric mean Cmax
  Cmax: 318 ng/mL
[1]; 17.5 mg formulation, estimated from 101 data, read-out: estimated AUC
  AUC: ~3280 ng·h/mL
[1]; 20 mg formulation, estimated from 101 data, read-out: estimated AUC
  AUC: ~3740 ng·h/mL
[1]; 25 mg formulation in TRM-201-PK-101, as stated in Example 6, read-out: Geometric mean AUC
  AUC: 4680 ng·h/mL
